ChEMBL document CHEMBL1123480, “Pyrazole derivatives. 5. Synthesis and antineoplastic activity of 3-(2-chloroethyl)-3,4-dihydro-4-oxopyrazolo[5,1-d]-1,2,3, 5-tetrazine-8-carboxamide and related compounds” (J Med Chem, 1986)
Calls of active or inactive are those of the source.

Assays:
Mus musculus = organism: Mus musculus; test: Antineoplastic activity against mammary adenocarcinoma M16c cell; IA=Inactive; assay type: functional
L1210 = test: Antineoplastic activity against L1210 cell line; IA=Inactive; assay type: functional, cell-based; details: Mus musculus
P388 = test: Antineoplastic activity against NCI P388 cell; IA=Inactive; assay type: functional, cell-based; details: Mus musculus

Measured: Activity

Cn1nnc2c(C(N)=O)cnn2c1=O
inactive: all assays above
